For one data set, the target named is T1, Pgp (Mus musculus, UniProt P21447).
T1 construct: made in house; host or cells: Pichia pastoris
Nature of the data set: Thermostability of purified Pgp in detergent solution (CPM dye fluorescence on heating). The following applies: Pgp purified in 0.05% DDM containing 0.01% CHS (DDM/CHS); Pgp in DDM alone ~40 °C. As for the experimental part: Figure S1: CHS increases the thermostability of purified Pgp in DDM detergent solution.
Pgp was purified from microsomal membranes as detailed in Methods in either 0.05% DDM or 0.05% DDM containing 0.01% CHS (DDM/CHS). Samples were incubated with 2 µM of the cysteine-reactive dye 7-Diethylamino-3-(4'-maleimidylphenyl)-4-methylcoumarin (CPM), and the increase in fluorescence upon heating the samples with a temperature ramp of 1 °C/min was monitored with excitation/ emission wavelengths of 384/470 nm. Increase in fluorescence is due to protein unfolding and exposure of reactive cysteines in Pgp. The melting temperature Tm was ~40 °C for Pgp in DDM solution, similar to that reported for Pgp by other methods (Yang et al., […]
2017). […] Representatives of three independent experiments are shown.
(1 picture or pasted object on this page, not shown here)

A further data set deals with T2, Mouse mdr1a Pgp (Mus musculus, UniProt P21447).
T2 construct: made in house; host or cells: Pichia pastoris
T2 sequence (P21447 whole entry): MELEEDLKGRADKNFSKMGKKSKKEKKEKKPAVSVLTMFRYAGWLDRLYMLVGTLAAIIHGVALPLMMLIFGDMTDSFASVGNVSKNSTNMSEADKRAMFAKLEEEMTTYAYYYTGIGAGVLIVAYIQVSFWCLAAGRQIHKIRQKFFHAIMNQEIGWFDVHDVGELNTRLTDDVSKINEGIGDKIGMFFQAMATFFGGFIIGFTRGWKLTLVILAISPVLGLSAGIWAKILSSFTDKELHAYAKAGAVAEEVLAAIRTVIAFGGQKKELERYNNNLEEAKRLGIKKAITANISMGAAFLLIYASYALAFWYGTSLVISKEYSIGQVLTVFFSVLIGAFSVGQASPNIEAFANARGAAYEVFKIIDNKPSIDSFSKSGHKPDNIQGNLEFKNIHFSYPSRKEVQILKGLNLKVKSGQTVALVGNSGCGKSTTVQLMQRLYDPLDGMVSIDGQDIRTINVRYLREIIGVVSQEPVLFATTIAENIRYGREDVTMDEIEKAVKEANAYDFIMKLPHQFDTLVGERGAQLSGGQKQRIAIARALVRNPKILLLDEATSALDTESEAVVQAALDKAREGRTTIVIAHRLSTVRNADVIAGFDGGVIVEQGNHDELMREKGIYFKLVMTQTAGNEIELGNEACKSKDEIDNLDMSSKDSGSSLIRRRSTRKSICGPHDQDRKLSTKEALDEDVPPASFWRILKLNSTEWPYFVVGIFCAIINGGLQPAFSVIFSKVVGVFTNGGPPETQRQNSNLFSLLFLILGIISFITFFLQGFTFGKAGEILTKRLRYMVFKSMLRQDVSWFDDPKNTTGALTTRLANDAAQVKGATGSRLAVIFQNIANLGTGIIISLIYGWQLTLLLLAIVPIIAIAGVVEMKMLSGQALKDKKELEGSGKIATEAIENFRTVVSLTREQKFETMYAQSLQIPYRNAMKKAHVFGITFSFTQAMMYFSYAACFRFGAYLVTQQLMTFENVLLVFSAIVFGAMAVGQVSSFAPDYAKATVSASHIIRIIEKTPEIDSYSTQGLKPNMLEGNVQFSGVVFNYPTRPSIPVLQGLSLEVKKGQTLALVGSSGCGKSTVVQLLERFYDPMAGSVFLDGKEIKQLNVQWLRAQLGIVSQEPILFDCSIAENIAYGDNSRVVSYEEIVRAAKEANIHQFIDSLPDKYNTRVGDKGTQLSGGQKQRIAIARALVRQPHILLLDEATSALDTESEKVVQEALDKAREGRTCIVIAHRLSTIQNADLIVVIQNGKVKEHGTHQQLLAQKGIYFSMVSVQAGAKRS
The data set can be described thus: Verapamil-stimulated ATPase activity of purified Pgp in DDM detergent activated with lipids (detergent-lipid micelles). Format: biochemical. The settings on record: ATPase in the absence of verapamil; Pgp in DDM activated with 1% of the named lipid (Table 2). On the procedure:
All purification buffers contained 50 mM Tris pH 8, 10% glycerol, and 500 mM NaCl (Buffer A). Detergent concentrations were reduced to 0.05% DDM during chromatography. Pgp was eluted from the Strep-Tactin superflow resin (Qiagen, Valencia, CA) in the presence of 1 mM DTT, 1 mM TCEP by competition with 4 mM desthiobiotin.

T1 sequence (P21447 whole entry): as above

In the case of `CC(C)CCC[C@@H](C)[C@H]1CC[C@H]2[C@@H]3CC=C4C[C@@H](OC(=O)CCC(=O)O)CC[C@]4(C)[C@H]3CC[C@]12C` [CHS, cholesteryl hemisuccinate], the “melting temperature Tm of Pgp” value at Pgp is 52 ºC.
`CCCCCCCC/C=C\CCCCCCCC(=O)O[C@H](COC(=O)CCCCCCCCCCCCCCC)COP(=O)([O-])OCC[N+](C)(C)C` [POPC only, 1-palmitoyl-2-oleoyl-sn-glycero-3-phosphocholine] yielded a Basal activity at Mouse mdr1a Pgp of 0.05 µmol/min/mg.

These data come from article PMC9995911, “Lipid environment determines the drug-stimulated ATPase activity of P-glycoprotein” (Frontiers in Molecular Biosciences, 2023).
